# Test system: AMPK
# Test: AMPK enzyme activity assay (Delfia technology, AMARA peptide substrate)
# Format: biochemical
# Conditions: compound at 30 μM vs AMP at 200 μM
# Procedure: The following biological test allows the determination of the efficacy of compounds of formula (1) onto AMPK protein.
# AMPK enzyme activities were assayed by using a Delfia technology. AMPK enzyme activities were carried out in microtiter plates in the presence of a synthetic peptide substrate (AMARAASAAALARRR, the “AMARA” peptide) and activators in serial dilutions. Reactions were initiated by the addition of AMPK. Enzyme activity was assayed by using an anti-phosphoserine antibody to measure the quantity of phosphate incorporated into the AMARAA.
# No: Number of the molecule
# Activity: Ratio between the % of control (basal activity) of compound of formula (1) at 30 μM and the % of control (basal activity) of AMP (natural substrate) at 200 μM.
row,SMILES,Activity: Ratio between the % of control (basal activity) of compound of formula (1) at 30 μM and the % of control (basal activity) of AMP (natural substrate) at 200 μM
1,"Cc1ccc(-c2c(Cl)sc3c2C(=O)C(C)(c2ccccc2)C(=O)N3)cc1 (stereo not shown) [No 34, 2-chloro-5-methyl-5-phenyl-3-(p-tolyl)-7H-thieno[2,3-b]pyridine-4,6-dione]",A (0%<A<50%)
2,"COc1ccc(C2(C)C(=O)Nc3sc(Cl)c(-c4ccccc4)c3C2=O)cc1 (stereo not shown) [No 35, 2-chloro-5-(4-methoxyphenyl)-5-methyl-3-phenyl-7H-thieno[2,3-b]pyridine-4,6-dione]",A (0%<A<50%)
3,"COc1ccc(-c2c(Cl)sc3c2C(=O)C(C)(c2ccccc2)C(=O)N3)cc1 (stereo not shown) [No 36, 2-chloro-3-(4-methoxyphenyl)-5-methyl-5-phenyl-7H-thieno[2,3-b]pyridine-4,6-dione]",A (0%<A<50%)
4,"CC1(c2ccc(F)cc2)C(=O)Nc2sc(Cl)c(-c3cccc(F)c3)c2C1=O (stereo not shown) [No 37, 2-chloro-3-(3-fluorophenyl)-5-(4-fluorophenyl)-5-methyl-7H-thieno[2,3-b]pyridine-4,6-dione]",A (0%<A<50%)
5,"COc1cccc(C2(C)C(=O)Nc3sc(Cl)c(-c4ccccc4)c3C2=O)c1 (stereo not shown) [No 38, 2-chloro-5-(3-methoxyphenyl)-5-methyl-3-phenyl-7H-thieno[2,3-b]pyridine-4,6-dione]",A (0%<A<50%)
6,"COc1ccc(-c2c(Cl)sc3c2C(=O)C(C)(c2ccc(F)cc2)C(=O)N3)cc1 (stereo not shown) [No 39, 2-chloro-5-(4-fluorophenyl)-3-(4-methoxyphenyl)-5-methyl-7H-thieno[2,3-b]pyridine-4,6-dione]",A (0%<A<50%)
7,"COc1cccc(-c2c(Cl)sc3c2C(=O)C(C)(c2ccccc2)C(=O)N3)c1 (stereo not shown) [No 40, 2-chloro-3-(3-methoxyphenyl)-5-methyl-5-phenyl-7H-thieno[2,3-b]pyridine-4,6-dione]",A (0%<A<50%)
8,"COc1cccc(-c2c(Cl)sc3c2C(=O)C(C)(c2ccc(C)cc2)C(=O)N3)c1 (stereo not shown) [No 41, 2-chloro-3-(3-methoxyphenyl)-5-methyl-5-(p-tolyl)-7H-thieno[2,3-b]pyridine-4,6-dione]",A (0%<A<50%)
9,"COc1cccc(-c2c(Cl)sc3c2C(=O)C(C)(c2ccc(F)cc2)C(=O)N3)c1 (stereo not shown) [No 42, 2-chloro-5-(4-fluorophenyl)-3-(3-methoxyphenyl)-5-methyl-7H-thieno[2,3-b]pyridine-4,6-dione]",A (0%<A<50%)
10,"COc1ccc(C2(C)C(=O)Nc3sc(Cl)c(-c4cccc(OC)c4)c3C2=O)cc1 (stereo not shown) [No 43, 2-chloro-3-(3-methoxyphenyl)-5-(4-methoxyphenyl)-5-methyl-7H-thieno[2,3-b]pyridine-4,6-dione]",A (0%<A<50%)
11,"COc1cccc(-c2c(Cl)sc3c2C(=O)C(C)(c2cccc(C)c2)C(=O)N3)c1 (stereo not shown) [No 44, 2-chloro-3-(3-methoxyphenyl)-5-methyl-5-(m-tolyl)-7H-thieno[2,3-b]pyridine-4,6-dione]",A (0%<A<50%)
12,"Cc1ccc(-c2c(Cl)sc3c2C(=O)C(C)(c2cccc(F)c2)C(=O)N3)cc1 (stereo not shown) [No 45, 2-chloro-5-(3-fluorophenyl)-5-methyl-3-(p-tolyl)-7H-thieno[2,3-b]pyridine-4,6-dione]",A (0%<A<50%)
13,"O=C1Nc2sc(Cl)c(-c3ccc(F)cc3O)c2C(=O)C1(F)c1ccccc1 (stereo not shown) [No 46, 2-chloro-5-fluoro-3-(4-fluoro-2-hydroxy-phenyl)-5-phenyl-7H-thieno[2,3-b]pyridine-4,6-dione]",B (50%≦B<75%)
14,"Cc1ccccc1-c1c(Cl)sc2c1C(=O)C(C)(c1ccccc1F)C(=O)N2 (stereo not shown) [No 47, 2-chloro-5-(2-fluorophenyl)-5-methyl-3-(o-tolyl)-7H-thieno[2,3-b]pyridine-4,6-dione]",A (0%<A<50%)
15,"COC1(c2ccccc2)C(=O)Nc2sc(Cl)c(-c3ccccc3)c2C1=O (stereo not shown) [No 48, 2-chloro-5-methoxy-3,5-diphenyl-7H-thieno[2,3-b]pyridine-4,6-dione]",A (0%<A<50%)
16,"CC1(c2ccc(F)cc2)C(=O)Nc2sc(Cl)c(-c3ccc(F)cc3)c2C1=O (stereo not shown) [No 49, 2-chloro-3,5-bis(4-fluorophenyl)-5-methyl-7H-thieno[2,3-b]pyridine-4,6-dione]",A (0%<A<50%)
17,"Cc1ccc(C2(C)C(=O)Nc3sc(Cl)c(-c4ccc(F)cc4)c3C2=O)cc1 (stereo not shown) [No 50, 2-chloro-3-(4-fluorophenyl)-5-methyl-5-(p-tolyl)-7H-thieno[2,3-b]pyridine-4,6-dione]",A (0%<A<50%)
18,"CC1(c2cccc(F)c2)C(=O)Nc2sc(Cl)c(-c3ccc(F)cc3)c2C1=O (stereo not shown) [No 51, 2-chloro-5-(3-fluorophenyl)-3-(4-fluorophenyl)-5-methyl-7H-thieno[2,3-b]pyridine-4,6-dione]",A (0%<A<50%)
19,"COc1ccccc1-c1c(Cl)sc2c1C(=O)C(C)(c1ccc(F)cc1)C(=O)N2 (stereo not shown) [No 52, 2-chloro-5-(4-fluorophenyl)-3-(2-methoxyphenyl)-5-methyl-7H-thieno[2,3-b]pyridine-4,6-dione]",A (0%<A<50%)

# Continued, values first:
row,Activity: Ratio between the % of control (basal activity) of compound of formula (1) at 30 μM and the % of control (basal activity) of AMP (natural substrate) at 200 μM,SMILES
1,A (0%<A<50%),"COc1ccc(C2(C)C(=O)Nc3sc(Cl)c(-c4ccc(F)cc4)c3C2=O)cc1 (stereo not shown) [No 53, 2-chloro-3-(4-fluorophenyl)-5-(4-methoxyphenyl)-5-methyl-7H-thieno[2,3-b]pyridine-4,6-dione]"
2,A (0%<A<50%),"CC1(c2ccc(S(C)(=O)=O)cc2)C(=O)Nc2sc(Cl)c(-c3ccc(F)cc3)c2C1=O (stereo not shown) [No 54, 2-chloro-3-(4-fluorophenyl)-5-methyl-5-(4-methyl-sulfonylphenyl)-7H-thieno[2,3-b]pyridine-4,6-dione]"
3,B (50%≦B<75%),"CC1(c2ccccc2F)C(=O)Nc2sc(Cl)c(-c3ccc(F)cc3)c2C1=O (stereo not shown) [No 55, 2-chloro-5-(2-fluorophenyl)-3-(4-fluorophenyl)-5-methyl-7H-thieno[2,3-b]pyridine-4,6-dione]"
4,A (0%<A<50%),"COc1ccccc1-c1c(Cl)sc2c1C(=O)C(C)(c1cccc(C)c1)C(=O)N2 (stereo not shown) [No 56, 2-chloro-3-(2-methoxyphenyl)-5-methyl-5-(m-tolyl)-7H-thieno[2,3-b]pyridine-4,6-dione]"
5,B (50%≦B<75%),"Cc1ccc(-c2c(Cl)sc3c2C(=O)C(C)(c2ccc(F)cc2)C(=O)N3)cc1 (stereo not shown) [No 57, 2-chloro-5-(4-fluorophenyl)-5-methyl-3-(p-tolyl)-7H-thieno[2,3-b]pyridine-4,6-dione]"
6,C (C≧75%),"COc1cccc(C2(C)C(=O)Nc3sc(Cl)c(-c4ccccc4C)c3C2=O)c1 (stereo not shown) [No 58, 2-chloro-5-(3-methoxyphenyl)-5-methyl-3-(o-tolyl)-7H-thieno[2,3-b]pyridine-4,6-dione]"
7,C (C≧75%),"Cc1cccc(C2(C)C(=O)Nc3sc(Cl)c(-c4ccccc4C)c3C2=O)c1 (stereo not shown) [No 59, 2-chloro-5-methyl-5-(m-tolyl)-3-(o-tolyl)-7H-thieno[2,3-b]pyridine-4,6-dione]"
8,C (C≧75%),"Cc1ccc(C2(C)C(=O)Nc3sc(Cl)c(-c4cccc(F)c4)c3C2=O)cc1 (stereo not shown) [No 60, 2-chloro-3-(3-fluorophenyl)-5-methyl-5-(p-tolyl)-7H-thieno[2,3-b]pyridine-4,6-dione]"
9,C (C≧75%),"COc1cccc(-c2c(Cl)sc3c2C(=O)C(C)(c2cccc(OC)c2)C(=O)N3)c1 (stereo not shown) [No 61, 2-chloro-3,5-bis(3-methoxyphenyl)-5-methyl-7H-thieno[2,3-b]pyridine-4,6-dione]"
10,C (C≧75%),"COc1cccc(-c2c(Cl)sc3c2C(=O)C(C)(c2cccc(F)c2)C(=O)N3)c1 (stereo not shown) [No 62, 2-chloro-5-(3-fluorophenyl)-3-(3-methoxyphenyl)-5-methyl-7H-thieno[2,3-b]pyridine-4,6-dione]"
11,C (C≧75%),"COc1cccc(C2(C)C(=O)Nc3sc(Cl)c(-c4ccc(F)cc4)c3C2=O)c1 (stereo not shown) [No 63, 2-chloro-3-(4-fluorophenyl)-5-(3-methoxyphenyl)-5-methyl-7H-thieno[2,3-b]pyridine-4,6-dione]"

# Same assay, conditions: compound at 30 μM vs AMP at 200 μM; listed as 2
row,Activity: Ratio between the % of control (basal activity) of compound of formula (1) at 30 μM and the % of control (basal activity) of AMP (natural substrate) at 200 μM,SMILES
1,B (50%≦B<75%),"COC1(c2ccccc2)C(=O)Nc2sc(Cl)c(-c3ccccc3)c2C1=O (stereo not shown) [No 48, 2-chloro-5-methoxy-3,5-diphenyl-7H-thieno[2,3-b]pyridine-4,6-dione]"
